Data published in publication PMC10338423, “Synthesis and preclinical evaluation of a novel fluorine-18 labeled small-molecule PET radiotracer for imaging of CXCR3 receptor in mouse models of atherosclerosis” (EJNMMI Research, 2023).

Assays:
human CXCR3 = molecular target: human CXCR3; design: method as in PMID 24174496, PMID 25576486; conditions: cited from earlier work
CXCR3A = molecular target: T1, CXCR3A (Homo sapiens, UniProt P49682); assay: Competition binding assay with [125I]CXCL10 on membranes of CXCR3A-transfected HEK293 cells; conditions: 80 pM 125I-CXCL10, Cheng-Prusoff
T1 construct: crude membranes
T1 sequence (P49682 1-368): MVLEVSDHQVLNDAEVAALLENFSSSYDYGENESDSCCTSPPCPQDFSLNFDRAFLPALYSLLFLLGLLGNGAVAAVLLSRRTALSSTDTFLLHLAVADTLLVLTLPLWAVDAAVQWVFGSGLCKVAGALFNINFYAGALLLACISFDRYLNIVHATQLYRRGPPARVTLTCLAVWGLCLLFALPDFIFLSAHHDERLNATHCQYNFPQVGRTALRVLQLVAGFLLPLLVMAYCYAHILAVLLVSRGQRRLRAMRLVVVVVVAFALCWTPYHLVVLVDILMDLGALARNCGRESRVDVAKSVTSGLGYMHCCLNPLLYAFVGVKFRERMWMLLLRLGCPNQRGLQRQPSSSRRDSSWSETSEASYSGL
Description: (§1) The equilibrium inhibition constants (Ki) value of 1 at CXCR3 receptor was measured through competition binding assay using NBI74330 (Tocris Bioscience, Bristol, UK), an antagonist of CXCR3 receptor, [^125I]CXCL10 (ViTrax Inc., Placentia, CA) and CXCR3 transfected human embryonic kidney (HEK) 293 cells. CXCR3 has two major variants, CXCR3A and CXCR3B, with distinctive biological roles, so two types of HEK293 cells containing each CXCR3 variant were prepared. Before the cell-binding assay, two cDNA constructs containing CXCR3 transcript variant A (CXCR3A, GenBank accession No. NM_001504; GenScript) and CXCR3 transcript variant B (CXCR3B, GenBank accession No. NM_001142797; GenScript) and HEK293 cells were purchased from GenScript Biotech (Piscataway, NJ) and ATCC (Manassas, VA), respectively. Then the cDNA constructs were transfected to HEK293 cells, and the transfected cells were cultured to get enough amount for the cell-binding assay. […] The IC50 value of 1 was measured based on the regression plot between the […] radioligand and the different concentrations of 1. […]
(§2) Radioligand binding was performed using crude HEK293 membranes overexpressing CXCR3A or CXCR3B as previously described. […] The Ki values of each competitive antagonist for specific ^125I-CXCL10 binding sites were calculated using the method of Cheng and Prusoff, as previously described. […]

CXCR3B = molecular target: T2, CXCR3B (Homo sapiens, UniProt P49682); assay: Competition binding assay with [125I]CXCL10 on membranes of CXCR3B-transfected HEK293 cells; conditions: 80 pM 125I-CXCL10, Cheng-Prusoff
T2 construct: crude membranes
T2 sequence (P49682 1-415 isoform P49682-2): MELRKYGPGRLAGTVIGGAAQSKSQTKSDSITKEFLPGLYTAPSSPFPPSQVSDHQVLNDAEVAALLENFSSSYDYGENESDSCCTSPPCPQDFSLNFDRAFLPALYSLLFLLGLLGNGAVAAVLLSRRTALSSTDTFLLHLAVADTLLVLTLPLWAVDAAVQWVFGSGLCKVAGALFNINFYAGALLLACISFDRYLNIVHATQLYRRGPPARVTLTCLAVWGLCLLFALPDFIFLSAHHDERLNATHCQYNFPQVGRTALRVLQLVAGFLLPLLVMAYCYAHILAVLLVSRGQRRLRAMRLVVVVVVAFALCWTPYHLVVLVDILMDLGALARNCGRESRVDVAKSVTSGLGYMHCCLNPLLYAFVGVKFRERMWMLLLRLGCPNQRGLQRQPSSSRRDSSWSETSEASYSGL
Description: as §1, §2

CXCR3 = tested on: CXCR3; design: method as in PMID 24486132; conditions: read-out: binding affinity IC50; cited from earlier work

Row | Ki (CXCR3A) | Ki (CXCR3B) | Structure (SMILES) | Kd (human CXCR3) | IC50 (CXCR3)
1 |  |  | CCNC(=O)c1cnc(N2CCN(C3CCN(Cc4ccc(Cl)cc4)CC3)[C@@H](CC)C2)c(Cl)c1 [VUF11211] | 0.65 nM | 
2 | 0.81 ± 0.02 nM | 0.31 ± 0.02 nM | CC[C@H]1CN(c2ncc(-c3nnco3)cc2Cl)CCN1C1CCN(Cc2ccc(Cl)cc2F)CC1 [compound 1, (S)-2-(5-chloro-6-(4-(1-(4-chloro-2-fluorobenzyl)piperidin-4-yl)-3-ethylpiperazin-1-yl)pyridin-3-yl)-1,3,4-oxadiazole] |  | 0.8 nM
